The text below walks through data of paper PMC6781459, “The study of antimicrobial, anti-cancer, anti-inflammatory and α-glucosidase inhibitory activities of Nigronapthaphenyl, isolated from an extract of Nigrospora sphaerica” (Mycology, 2019).

The structures appear in SMILES notation.

The target of the assay is α-glucosidase. In words: α-glucosidase inhibition assay (no method or enzyme source described). The class given is biochemical.

As for `COc1cc(OC)c2cc(C(=O)c3ccccc3)ccc2c1OC` [Nigronapthaphenyl], half-maximal inhibition (IC50) was put at 6.9 ± 0.5 µM.
